# Test results from patent US11779600B2, “Methods of treating or preventing alzheimer's disease and associated conditions” (CEDARS-SINAI MEDICAL CENTER, priority 2016, dated 2023).
# Tested on: infiltrating OPN+CD45high cells
# Experiment: OPN+CD45high infiltrating cell count in ADtg mouse brain
# Type: in vivo
# Conditions: cell count per section, vs PBS controls (FIG. 13F)
# Procedure: ADtg mice (10 months old) received subcutaneous injections of GA [also known as Cop-1 and Copaxone®; 100 μg in phosphate-buffered saline (PBS)] or PBS alone (control group) twice a week for 1 week and then once a week for 8 weeks. For evaluation of innate immune infiltration to the brain by flow cytometry, 10-month-old ADtg mice received subcutaneous injections of GA (100 mg in PBS) or PBS alone twice a week for 1 week and then once a week for 3 weeks. At the end of the study, all mice were anaesthetized and then perfused with ice-cold PBS with 0.5 mM EDTA, after which their organs were collected and analyzed or fixed in 2.5% paraformaldehyde (Sigma-Aldrich), and cryoprotected with 30% sucrose for further histological analysis.
# CD115^+ monocytes from mice donors were isolated as previously reported (Koronyo et al., Brain: a journal of neurology 2015,138:2399-2422). In brief, bone marrow cells were harvested from the femora, tibiae, and humeri and enriched for mononuclear cells on a Ficoll-Paque® PLUS (17-1440-03, GE Healthcare) density gradient. […]
# The number and area (μm^2) of OPN+ cells, Iba1^+CD45^hi cells, GFAP^+ cells, Thio-S^+ amyloid-βplaques and 4G8^+ amyloid-βplaques were determined by examining four to six coronal sections per mouse at 150-μm intervals over an area covering both the hippocampal and cortical (including entorhinal and cingulate cortex) regions. […]
substance,measurement,value
glatiramer acetate [GA],increase in number of infiltrating OPN+CD45high cells,1.5 fold
